Measurements: PMC4552634, “A New Set of Chemical Starting Points with Plasmodium falciparum Transmission-Blocking Potential for Antimalarial Drug Discovery” (PLoS ONE, 2015)
Where two headings read alike, the source gives them in different places.

What was measured:
[1] = Cytotoxicity in HepG2 cells (intracellular ATP, ATPlite, 48 h); format: cell-based, human; conditions: human, HepG2 cells; IC50 per ratio column head; unit inferred; read-out: Cytotoxicity in HepG2
Protocol: (§1) Cells were grown and maintained in EMEM (Sigma-Aldrich) supplemented with 2mM L-glutamine (Sigma-Aldrich) and 10% fetal calf serum (Perbio). […] Passages were routinely made upon reaching 80–90% confluence. For cytotoxicity experiments, cells were seeded onto 96-well clear bottom black plates coated with type I collagen (Biocoat, Becton Dickinson) at a cell density of 20,000 cells/well.
(§2) To determine cytotoxic effects, represented by the Tox50 value (the concentration of drug that reduces cell viability by 50%), cells were exposed to serial dilutions of compounds for 48 h at 37°C. The assay medium was as previously described, but supplemented with 5% fetal calf serum instead of 10%. […] In the presence of ATP, luminescence is emitted as the reaction described earlier for the BacTiter-Glo kit. Percentages of inhibition were calculated relative to vehicle control wells.

[2] = test system: P. falciparum asexual stages; conditions: asexual stages; TCAMS data; read-out: IC50 asexual; cited from earlier work
[3] = test system: P. falciparum stage V gametocytes; assay: Gametocytocidal ATP bioluminescence assay (single point 5 μM and 1 μM, dose-response); format: cell-based, Plasmodium falciparum; conditions: for Ratio IC50 HepG2/IC50 P. falciparum: IC50 HepG2 divided by IC50 P. falciparum gametocytes
Protocol: Purified stage IV-V gametocytes were obtained as previously described [10]. Single point ATP bioluminescence assay and dose–response of positive hits was determined in accordance with the previously published protocol [10].

[4] = test system: luciferase reaction (BacTiter-Glo); assay: Interference assay (inhibition of the BacTiter-Glo luciferase reaction); format: biochemical; set-up: concentration or dose not given beside the values; conditions: ATP interference assay
Protocol: To discard possible false-positive results, we performed an interference assay in parallel. […] […]. The ATP solution was made by dissolving ATP powder (ATP standard from the ATPlite 1 step assay kit, reference 6016731, Perkin Elmer) in culture medium. The positive control used was the Luciferase Inhibitor I Calbiochem (Merck, 119113) at 100 μM.

[5] = test system: HepG2 cells; assay: Cytotoxicity in HepG2 cells (intracellular ATP, ATPlite, 48 h); format: cell-based, human; conditions: HepG2 cells; IC50 per ratio column head; unit inferred
Protocol: as §1, §2

[6] = test system: P. falciparum stage V gametocytes; assay: microbe, parasite or virus in culture; set-up: BacTiter-Glo ATP luminescence viability of purified stage V gametocytes in 384-well plates, per cent inhibition versus DMSO; conditions: Plasmodium falciparum, 48 h, read-out: % Inhibition
[7] = P. falciparum gametocytes, average, read-out: IC50 Pf Gametocytes average, IC50 (µM) average
[8] = sexual stages (gametocytes), dose-response, read-out: IC50 sexual

Structure (SMILES) | IC50 at 48 h [1] | IC50 [2] | Ratio IC50 HepG2/IC50 P. falciparum [3] | IC50 ([3]; Plasmodium falciparum, P. falciparum gametocytes, average, read-out: IC50 Pf Gametocytes average, IC50 (µM) average) | % Control luminiscence [4] | IC50 [5] | IC50 [3, 7] | IC50 [3, 8] | inhibition at 5 µM [6]
Fc1ccc2[nH]c(-c3ccc(-c4ccc(CN5CCC(CCN6CCCCC6)CC5)cc4)cc3)nc2c1 [TCMDC-133924] | 5300 nM | 129 nM | 12 | 0.46 µM | 100% |  |  |  | 
Cc1cccc2[nH]cc(C3CCN(CC4CCC(NC(=O)/C=C/c5ccc(Cl)c(Cl)c5)CC4)CC3)c12 (stereo not drawn) [TCMDC-140137] |  | 163 nM | 2 |  | 100% | 2950 nM | 1.45 µM | 1.45 µM | 
Cc1occc1C(=O)Nc1nc(-c2ccccn2)nc2ccsc12 [TCMDC-135244] |  | 899 nM | <5 |  | 99% | < 1560 nM | 0.3 µM | 0.303 µM | 
CC(C)CNCc1cccc(-c2ccc(CN(CCCN3CCN(C)CC3)C(=O)/C=C/c3ccccc3)cc2)c1 [TCMDC-140545] |  | 857 nM | 11 |  | 100% | 6650 nM | 0.63 µM |  | 
C[C@H](Cc1ccc(C[C@@H](C)NC[C@H](O)c2cccc(Cl)c2)cc1)NC[C@H](O)COc1ccccc1 [TCMDC-131549] |  | 1170 nM | 5 |  | 100% | 4700 nM | 0.92 µM | 0.923 µM | 
COc1ccccc1-c1cccc(-c2cccc(NC(=O)c3ccc([N+](=O)[O-])o3)c2)n1 [TCMDC-124800] |  | 603 nM | 7 |  | 100% | 11500 nM | 1.66 µM | 1.66 µM | 
Cc1cc(-c2cccc(CNC3CCCC3)c2)ccc1S(=O)(=O)NCCN1CCCC1 [TCMDC-132279] |  | 1240 nM | 6 |  | 100% | 7500 nM | 1.24 µM | 1.24 µM | 
CCCOc1ccc(CCNCCCCNCCc2ccc(OCCC)c3ccccc23)c2ccccc12 [TCMDC-137952] |  | 917 nM | 31 |  | 100% | 2600 nM | 0.08 µM | 0.083 µM | 
C[C@H]1CN(Cc2cccc(-c3cc(CNC(=O)c4cccc(CC5CCN(C)CC5)c4)ccc3F)c2)CCN1C [TCMDC-136349] |  | 1090 nM | 8 |  | 100% | 6970 nM | 0.85 µM |  | 
Nc1ncc(-c2ccc3nccc(-c4ccncc4)c3c2)cc1S(=O)(=O)N1CCOCC1 [TCMDC-134180] |  | 872 nM | >3 |  | 100% | > 25000 nM | 6.9 µM |  | 
CC(C)CNCc1ccc(-c2cccc(CN(CCN(C)C)C(=O)CCC3CCCC3)c2)cc1 [TCMDC-140553] |  | 809 nM | 10 |  | 100% | 5500 nM | 0.54 µM |  | 
COc1ccc2c(NN=Cc3ccc(OC)c4ccccc34)cc(C)nc2c1 [TCMDC-142218] |  | 599 nM | 10 |  | 97% | 7860 nM | 0.77 µM | 0.773 µM | 97.5%
O=C(NCCCCN1CCC(c2ccc3c(c2OCCO)CCCC3)CC1)c1ccc2oc(-c3ccc(C(F)(F)F)cc3)cc2c1 [TCMDC-138771] |  | 340 nM | 10 |  | 97% | 6590 nM | 0.63 µM |  | 
Cc1cc(OCCN2CCCCC2)ccc1NC(=O)c1cccc2c(=O)n(Cc3ccc(Cl)cc3)cnc12 [TCMDC-136727] |  | 1060 nM | 5 |  | 97% | 4730 nM | 0.95 µM |  | 
CCCCCCCN1CC[C@@H](CCCc2ccnc3ccc(OC)cc23)[C@@H](CCN)C1 [TCMDC-139278] |  | 748 nM | 11 |  | 100% | 2980 nM | 0.27 µM | 0.267 µM | 
CN(C)S(=O)(=O)c1cc(-c2ccc3nccc(-c4cccc(S(N)(=O)=O)c4)c3c2)cnc1N [TCMDC-134230] |  | 251 nM | <1.5 |  | 100% | 14800 nM | > 10 µM |  | 
CS(=O)(=O)c1cccc2sc(N3CCN(C(=O)c4ccc([N+](=O)[O-])o4)CC3)nc12 [TCMDC-124930] |  | 1240 nM | <1.9 |  | 100% | 18800 nM | > 10 µM |  | 
CS(=O)(=O)CCNCc1nc(-c2ccc3c(=O)[nH]cnc3c2)cs1 [TCMDC-138539] |  | 1010 nM | 1.57 |  | 98% | 4200 nM | 2.68 µM |  | 
COc1ccc2nc(-c3cccc(C)n3)nc(Nc3ccncc3)c2c1 [TCMDC-134670] |  | 669 nM |  |  | 100% | > 25000 nM | 2.51 µM |  | 
CN1CCN(CCCNCc2cccc(Nc3nccc(Nc4ccc(Oc5ccccc5)cc4)n3)c2)CC1 [TCMDC-138616] |  | 765 nM | 16 |  | 100% | 5170 nM | 0.32 µM |  | 
Cc1cccc(-c2nc(Nc3ccncc3)c3cc(N(C)C)ccc3n2)n1 [TCMDC-135308] |  | 710 nM | >9 |  | 98% | > 25000 nM | 2.66 µM |  | 
CN(C)CCCn1c(N)c(-c2nc3ccccc3[nH]2)c2nc(C#N)c(C#N)nc21 [TCMDC-123729] |  | 591 nM | 35 |  | 100% | 6930 nM | 0.2 µM |  | 
CNCCNc1nccc(N2CCc3ncnc(Nc4ccc(OCc5cccc(F)c5)c(Cl)c4)c3C2)n1 [TCMDC-135478] |  | 197 nM | 11 |  | 98% | 7160 nM | 0.67 µM | 0.665 µM | 
O=C(Nc1cccc(-c2cccc(-c3ccc(F)cc3)n2)c1)c1ccc([N+](=O)[O-])o1 [TCMDC-124807] |  | 361 nM | 4.55 |  | 100% | 6940 nM | 1.53 µM | 1.53 µM | 
COCCn1c(-c2cccc(Cl)c2)nn(-c2ccc([N+](=O)[O-])cc2C#N)c1=S [TCMDC-134719] |  | 178 nM | >9 |  | 97% | > 25000 nM | 2.78 µM | 2.78 µM | 
Cc1ccc(-n2nc(-c3ccccc3)c3cc(C(=O)NCCN)sc32)cc1 [TCMDC-124776] |  | 1360 nM | 7 |  | 99% | 7830 nM | 1.11 µM |  | 
COC(=O)c1sc(-c2ccc(Cl)cc2)cc1N(CCCN1CCC(N2CCCCC2)CC1)S(=O)(=O)c1ccc(C)cc1 [TCMDC-135561] |  | 744 nM | 1.3 |  | 93% | 4370 nM | 3.36 µM | 3.37 µM | 
